Data reported in article PMC11960969, “Mdga2 deficiency leads to an aberrant activation of BDNF/TrkB signaling that underlies autism-relevant synaptic and behavioral changes in mice” (PLOS Biology, 2025).
“And” between values parts separate entries of the source, which are not always exact repeats. Equal entries are not always repeated. No end group written: not given here.

What was measured:
human TrkB protein = test: GST pull-down of purified human TrkB with MDGA2 fragments; type: binding; details: in vitro, GST-tagged fragments
Experimental: Full-length human TrkB or MDGA2 cDNA was cloned into the pcDNA6-His vector. TrkB and MDGA2 proteins were expressed in HEK293T cells and then purified using a His-tag Protein Purification Kit (Beyotime, Cat# P2229S).
GST pull-down: GST-fused MDGA2 fragments (L1: MDGA2 aa 746−786; L2: MDGA2 aa 787−833) were expressed in bacteria and purified using Glutathione Sepharose 4B (GE Healthcare, Cat# 17-0756-01). Purified human TrkB protein was incubated with GST-fused MDGA2-L1, MDGA2-L2, or GST proteins and then pulled down with Glutathione Sepharose 4B.

mice [1] = test: Three-chamber test (sociability and social novelty); type: in vivo, mouse; set-up: key to Sociability, Figure S4G: sociability index = (T_S1 - T_E)/(T_S1 + T_E), sniffing time; key to Social novelty, Figure S4G: social novelty index = (T_S2 - T_S1)/(T_S2 + T_S1), sniffing time; details: for Sociability, Figure S4G / Social novelty, Figure S4G: individual animals
Experimental: (§1) Six- to eight-week-old male mice were subjected to various behavioral tests. Mice were allowed to acclimatize in the testing room for 1 h prior to each test. Data were recorded and analyzed using Smart 3.0 video tracking system (Panlab, Harvard Apparatus).
This test was performed as described previously with minor modifications. The apparatus (60 W × 40 D × 22 H cm) has two transparent partitions separating the left, the middle, and the right chambers (20 × 40 cm each), and each partition has a small opening (5 × 5 cm) for access to each chamber. A fixed wire cylinder (8.5 cm diameter) was placed in each of the left and the right chambers. This test consisted of three phases: habituation, sociability test, and social novelty test. During habituation, both left and right cylinders were empty, and tested mice were placed in the center and allowed to explore freely for 10 min. During the sociability test, a gender-matched strange mouse (S1) was enclosed in one empty cylinder, and mice were allowed to freely explore for 10 min. Their time spent sniffing S1 or the other empty cylinder (E) was measured and the sociability preference index (T(S1 − -E)/T(S1 + E): time spent sniffing S1 minus time spent sniffing E over time spent sniffing both S1 and E) was calculated for comparison. During the social novelty test, another gender-matched unfamiliar mouse (S2) was placed into the empty cylinder and mice were allowed to freely explore for another 10 min. Their time spent sniffing S1 or S2 was measured and the social novelty preference index (T(S2 − S1)/T(S2 + S1): time spent sniffing S2 minus time spent sniffing S1 over time spent sniffing both S2 and S1) was calculated for comparison.

mice [2] = test: Open field test; type: in vivo, mouse; set-up: OFT (open field test), Figure S4C: unit not given here; details: individual animals;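 also: values are total travel distance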
Experimental: as §1
Mice were gently placed in the center of an open field apparatus (40 × 40 × 40 cm), and allowed for a 10-min period of free movement. Total distance traveled and time spent in center were analyzed.

mice [3] = test: Novel location recognition (NLR) test; type: in vivo, mouse; set-up: key to NLR (novel location recognition), Figure S4D: discrimination index = (T novel − T familiar)/(T novel + T familiar); details: for NLR (novel location recognition), Figure S4D: individual animals
Experimental: as §1
This test consists of habituation, training, and testing phases. Mice were first put into the open field apparatus described above for 10 min habituation. During the training phase, mice were allowed to freely explore two identical objects placed near two opposite corners of the open field arena for 8 min. Twenty-four hour later, one of the objects was moved to be close to a third corner (N: Novel location) while the other one was kept in the same spatial position (F: Familiar location). Mice were then tested for their exploration behavior with these objects for 8 min. The discrimination index (T(N − F)/T(N + F): time spent exploring the novel location minus time spent in familiar location over time spent to both novel and familiar location) was calculated to assess the recognition memory of mice.

mice [4] = test: Self-grooming test; type: in vivo, mouse; set-up: Repetitive behaviors / Repetitive behaviors, Figure S4E: unit not given here; details: for Repetitive behaviors: Figure 5D; for Repetitive behaviors / Repetitive behaviors, Figure S4E: Test2, individual animals
Experimental: as §1
Tested mice were placed individually in a clean cage with fresh bedding. After 5 min of habituation, the spontaneous behaviors of mice were recorded for 30 min and their self-grooming behavior was analyzed.

TrkB signaling pathway = test: Immunoblotting of TrkB signaling in hippocampal neurons treated with NLGN1 siRNA; type: cell-based, mouse; details: NLGN1 knockdown in MDGA2-deficient hippocampal neurons, n = 4
Description: NLGN1-targeting siRNA and scrambled control siRNA were synthesized by GenePharma (Shanghai, China). The sequences were as follows: NLGN1 siRNA sense: 5′-[…]-[…]-3′, NLGN1 siRNA antisense: 5′-[…]-3′. Scrambled control siRNA sense: 5′-[…]-3′, Scrambled control siRNA antisense: 5′-[…]-3′
Plasmids were transfected into HEK293T, SH-SY5Y, and HeLa cells using Turbofect transfection reagent (ThermoFisher), following the manufacturer’s instructions. Primary neurons were transfected with plasmids using Lipofectamine LTX (ThermoFisher, Cat# 15338100) or EntransterTM-H4000 transfection reagent (Engreen Bio-system, Cat# 4000-6), and with siRNAs using Lipofectamine RNAiMAX (ThermoFisher, Cat# 13778100), following manufacturers’ protocols. The transfection efficiency of both Lipofectamine LTX and EntransterTM-H4000 exceeded 50%. […]
Supplementary file pbio.3003047.s003.tif: S3 Fig MDGA2 competes with brain-derived neurotrophic factor (BDNF) for tyrosine kinase B (TrkB) binding. […] The pTyr levels were quantified by densitometry, normalized to total TrkB levels, and then compared to those of WT littermates. n = 4 per group. […] Immunoprecipitated BDNF levels in Het samples were quantified by densitometry, normalized to input levels, and compared to WT controls (set to one arbitrary units). n = 4 per group. […]

mice [5] = test: Social affiliation test; type: in vivo, mouse; details: Mdga2+/- mice, 1 mg/kg i.p., 60 min, n = 10
Experimental: as §1
The test procedure was similar to that described previously. Briefly, a cylinder (8.5 cm in diameter) with a gender-matched reference mouse confined was placed at a specific location in an open field (40 cm in diameter). Tested mice were allowed to move freely in the open field for 7 min and their sniffing time with the reference mice was analyzed.

[6] = Mdga2+/- mice, 1 mg/kg i.p., 60 min, n = 10

Compound: L1: GST-fused MDGA2 fragment aa 746−786 (FHCGFEDGNICLFTQDDTDNFDWTKQSTATRNTKYTPNTGP; cysteine pairing not given here; also: GST-fused)
- interaction with TrkB (GST pull-down) (human TrkB protein): not GST-tagged L1 interacted with TrkB

Compound: L2: GST-fused MDGA2 fragment aa 787−833 (NADRSGSKEGFYMYIETSRPRLEGEKARLLSPVFSIAPKNPYGPTNT; also: GST-fused)
- interaction with TrkB (GST pull-down) (human TrkB protein): interacted with TrkB

Compound: O=C(Nc1ccccc1C(=O)NC1CCCCNC1=O)c1cc2ccccc2s1 (stereo not shown) [ANA12]
- Sociability, Figure S4G (mice [1]; Het+ANA12, Test1): 0.42 and 0.0153 and 0.50 and 0.46 and 0.24 and 0.59 and 0.23 and -0.06 and 0.14 and 0.34 and 0.26 and 0.0119 and 0.40
- Social novelty, Figure S4G (mice [1]; Het+ANA12, Test1): 0.24 and 0.45 and 0.21 and -0.09 and -0.20 and 0.40 and 0.11 and -0.13 and 0.0948 and 0.000711 and 0.03 and 0.09 and 0.14 and 0.35
- Sociability, Figure S4G (mice [1]; Het+ANA12, Test2): 0.33 and -0.13 and 0.40 and 0.15 and 0.02 and -0.01 and 0.31 and 0.35 and 0.08 and 0.17 and 0.12 and 0.27 and -0.04 and -0.19 and 0.54
- Social novelty, Figure S4G (mice [1]; Het+ANA12, Test2): 0.15 and -0.17 and 0.23 and 0.32 and 0.18 and 0.16 and 0.44 and -0.13 and 0.0424 and -0.07 and 0.41 and -0.0144 and 0.06 and 0.0317 and 0.11
- Sociability, Figure S4G (mice [1]; WT+ANA12, Test1): 0.72 and 0.46 and 0.41 and 0.66 and 0.61 and 0.33 and 0.44 and 0.36 and 0.55 and -0.10 and 0.22 and -0.13 and 0.11
- Social novelty, Figure S4G (mice [1]; WT+ANA12, Test1): 0.05 and 0.43 and 0.53 and -0.13 and 0.39 and 0.40 and 0.32 and 0.62 and 0.44 and 0.33 and -0.01 and 0.18 and 0.61 and -0.10
- Sociability, Figure S4G (mice [1]; WT+ANA12, Test2): 0.39 and 0.66 and 0.10 and -0.24 and 0.51 and 0.65 and 0.38 and 0.48 and 0.50 and 0.31 and 0.54 and 0.29 and 0.71 and 0.09 and 0.47
- Social novelty, Figure S4G (mice [1]; WT+ANA12, Test2): -0.06 and 0.16 and 0.50 and 0.26 and 0.08 and 0.12 and 0.42 and 0.30 and 0.55 and 0.58 and 0.27 and 0.11 and 0.33
- OFT (open field test), Figure S4C (mice [2]; Het+ANA12, Test1): 39.1 and 38.5 and 30.9 and 34.7 and 41.8 and 45.2 and 48.5 and 34.6 and 26.5
- OFT (open field test), Figure S4C (mice [2]; Het+ANA12, Test2): 19.1 and 38.5 and 35 and 43.1 and 30.9 and 22 and 39 and 30.4 and 45.6 and 31.5 and 29.6 and 25.1 and 49.6 and 27.8 and 28.2
- OFT (open field test), Figure S4C (mice [2]; WT+ANA12, Test1): 46.5 and 20.6 and 31.2 and 41.8 and 24 and 27.1 and 44.6 and 35 and 26.6 and 21.8 and 34.8 and 37 and 41.1 and 19.1 and 26.9
- OFT (open field test), Figure S4C (mice [2]; WT+ANA12, Test2): 43.3 and 20.5 and 26 and 46 and 26.1 and 37.1 and 47.7 and 21.2 and 24.6 and 27.2 and 22 and 34.1 and 17 and 29.8 and 32.4
- NLR (novel location recognition), Figure S4D (mice [3]; Het+ANA12, Test1): -0.13 and 0.49 and 0.11 and 0.03 and 0.36 and -0.0741 and 0.20 and 0.55 and 0.14 and 0.51 and 0.0439 and 0.0756 and 0.45 and 0.32 and -0.03
- NLR (novel location recognition), Figure S4D (mice [3]; Het+ANA12, Test2): 0.15 and 0.00112 and 0.11 and 0.43 and 0.18 and -0.10 and 0.51 and 0.26 and -0.18 and 0.30 and 0.00129 and 0.14 and -0.04
- NLR (novel location recognition), Figure S4D (mice [3]; WT+ANA12, Test1): 0.36 and 0.47 and 0.12 and 0.06 and 0.23 and 0.50 and 0.35 and 0.32 and -0.035 and 0.43 and 0.37 and -0.09 and 0.25 and 0.51 and -0.07
- NLR (novel location recognition), Figure S4D (mice [3]; WT+ANA12, Test2): -0.05 and 0.41 and 0.35 and 0.09 and 0.46 and -0.12 and 0.53 and 0.45 and 0.17 and 0.20 and -0.17 and 0.62 and 0.54
- Repetitive behaviors (mice [4]; Het+ANA12): 19 and 17 and 36 and 33 and 26 and 14 and 10 and 20 and 12 and 38 and 29 and 30 and 22 and 16
- Repetitive behaviors (mice [4]; WT+ANA12): 32 and 20 and 14 and 10 and 7 and 25 and 9 and 18 and 8 and 11 and 13
- Repetitive behaviors, Figure S4E (mice [4]; Het+ANA12): 15 and 19 and 11 and 20 and 12 and 38 and 30 and 29 and 18 and 13 and 26 and 32 and 22 and 35
- Repetitive behaviors, Figure S4E (mice [4]; WT+ANA12): 12 and 22 and 6 and 30 and 5 and 14 and 8 and 18 and 10 and 16 and 9 and 20 and 17 and 11

Compound: NLGN1 siRNA: NLGN1-targeting siRNA, sense 5′-CCUGUGUGGU-UCACUAAUATT-3′ (sense CCUGUGUGGUUCACUAAUATT; antisense UAUUAGUGAACCACACAGGTT; chemistry not given here)
- effect on TrkB signaling pathway (TrkB signaling pathway): treated with either vehicle or NLGN1 siRNA

Compound: CCN(CC)Cc1cccc(/C=C/c2nc3ccc(F)cc3c(=O)n2-c2ccccc2Cl)n1 [CP-465022, reference compound]
- sociability (mice [1]; [6]): rapidly promoted social affiliation and sociability
- social novelty (mice [1]; [6]): without affecting social novelty
- recognition memory (mice [3]; [6]): without affecting social novelty, recognition memory
- repetitive self-grooming behavior (mice [4]; [6]): without affecting social novelty, recognition memory, and repetitive self-grooming behavior
- social affiliation (mice [5]): rapidly promoted social affiliation
